Here are results for eight molecules from patent US12370208B2, “Adenosine derivative and pharmaceutical composition comprising the same” (Brii Biosciences, Inc., priority 2019, dated 2025).

Data set [1] can be described thus: Plasma exposures following oral administration to beagle dogs.
The nature of data set [2]: Liver S9 stability and conversion to EFdA in human liver S9. The class given is in vitro ADME. The settings on record: for Conversion to the target drug: liver S9 assay; for Stability in Human Liver S9 Half-life: human liver S9, 37° C. The protocol:
Intermediate solution: Dilute 5 μL of compounds or controls (7-ethoxycoumarin) from stock solution (10 mM) with 495 μL MeOH (Conc.: 100 μM, 1% DMSO, 99% MeOH). Stop solution: Cold ACN (including 100 ng/mL Tolbutamide and Labetalol as internal standard). Add 2 μL test compound or control working solution/well to all plates (T0, T5, T10, T20, T30, T60, NCF60) except matrix blank. Add 600 μL/well stop solution (cold in 4° C., including 100 ng/mL Tolbutamide/100 ng/mL Labetalol) to terminate the T0 plate, then put it on ice. Dispense 840 μL/well S9 solution to 96-well plate as reservoir according to plate map. Then add 100 μL/well to every plate by Apricot. Incubate S9 solution and compound at 37° C. for about 10 min except NCF60 and TO. After adding S9 solution and 98 μL PB buffer to NCF60, incubate at 37° C. without pre-warming, start timer 1. After 60 min, add 600 μL/well stop solution to terminate the reaction. After pre-warming, dispense 760 μL/well cofactor solution to 96-well plate as reservoir according to plate map. Then add 98 μL/well to every plate by Apricot to start reaction. Incubate at 37° C., start timer 2, Add 600 μL/well stop solution (cold in 4° C., including 100 ng/mL Tolbutamide and Labetalol) to terminate the reaction. Samples are centrifuged at 4000 rpm for 20 min. While centrifuging, load 8×new 96-well plate with 300 μL HPLC water, then transfer 100 μL supernatant, mix with water for LC/MS/MS, transferred to Bioanalytical Services for LC-MS/MS analysis. Use equation of first order kinetics to calculate t1/2 and CL: Equation of first order kinetics: […]

Data set [3] in a line: Plasma stability and conversion to EFdA in human plasma. The class given is in vitro ADME.
Description: The pooled frozen plasma was thawed in a water bath at 37° C. prior to experiment. Plasma was centrifuged at 4000 rpm for 5 min and the clots were removed if any. The pH will be adjusted to 7.4±0.1 if required.
Preparation of test compounds and positive control (propantheline bromide): 1 mM intermediate solution was prepared by diluting 10 μL of the stock solution with 90 μL MeOH; 1 mM intermediate of positive control Propantheline was prepared by diluting 10 μL of the stock solution with 90 μL ultrapure water. 100 μM dosing solution was prepared by diluting 20 μL of the intermediate solution (1 mM) with 180 μL MeOH. 98 μL of blank plasma was spiked with 2 μL of dosing solution (100 μM) to achieve 2 μM of the final concentration in duplicate and samples were incubated at 37° C. in a water bath. At each time point (0, 10, 30, 60 and 120 min), 400 μL of stop solution (0.1% FA in MeOH containing 200 ng/mL tolbutamide and 200 ng/mL Labetalol) was added to precipitate protein and mixed thoroughly. Centrifuged sample plates at 4,000 rpm for 10 min. An aliquot of supernatant (100 μL) was transferred from each well to another plates.
Data analysis: The % remaining of test compound after incubation in plasma was calculated using following equation: % Remaining=100×(PAR at appointed incubation time/PAR at T0 time) where PAR is the peak area ratio of analyte versus internal standard (IS) (LC/MS/MS mobile phase condition: 0.1% Formic Acid in Water/0.1% Formic Acid in Acetonitrile. The appointed incubation time points are T0 (0 min), Tn (n=0, 10, 30, 60, 120 min). Liver S9 Stability
Where [4] appears, read: Prodrug formula 4-A PO 8.25 mg/kg, 12.0 hrs, individual animals 2001-2003.
Setting [5] is: Prodrug formula 4-A PO 8.25 mg/kg, 24.0 hrs, individual animals 2001-2003.

Where “and” joins values, the source holds several entries; their conditions need not be identical. Equal values may be shown once.

On to `C#C[C@]1(CO)O[C@@H](n2cnc3c(N)nc(F)nc32)C[C@@H]1O` [EFdA, (2R,3S,5R)-5-(6-amino-2-fluoro-9H-purin-9-yl)-2-ethynyl-2-(hydroxymethyl)tetrahydrofuran-3-ol, reference compound], for which the “EFdA Concentrations in Dog Plasma” value in data set [1] (EFdA PO 5 mg/kg, 6.00 hrs, individual animals 4001-4003) was “BQL”; in data set [1] (EFdA PO 5 mg/kg, 8.00 hrs, individual animals 4001-4003), “BQL”; in data set [1] (EFdA PO 5 mg/kg, 12.0 hrs, individual animals 4001-4003), “BQL”; in data set [1] (EFdA PO 5 mg/kg, 24.0 hrs, individual animals 4001-4003) it was “BQL”. In data set [1] (oral EFdA 5 mg/kg, dogs), the “EFdA Exposure in Plasma Cmax” value amounted to 392 ng/mL. Also, the “EFdA Exposure in Plasma AUC” value in data set [1] (oral EFdA 5 mg/kg, dogs, AUC0-24 h) was determined as 792 ng·h/mL.

For the molecule `C#C[C@]1(COC(=O)OCc2oc(=O)oc2C)O[C@@H](n2cnc3c(N)nc(F)nc32)C[C@@H]1O` [Formula 4-A, ((2R,3S,5R)-5-(6-amino-2-fluoro-9H-purin-9-yl)-2-ethynyl-3-hydroxytetrahydrofuran-2-yl)methyl((5-methyl-2-oxo-1,3-dioxol-4-yl)methyl) carbonate], the “Stability in Human Liver S9 Formation of EFdA” value in data set [2] is given as “Yes”. Moreover, the “Conversion to the target drug” value in data set [2] and in data set [3] (human plasma assay) was “can be converted to the target drug efficiently” throughout. Further, in data set [3], the “Stability in Human Plasma Formation of EFdA” value is listed as “Yes”. Further, the “AUC compared with a dose-equivalent EFdA” value in data set [1] (EFdA in dog plasma, oral) is recorded as “higher”. In data set [1] (EFdA in dog plasma, oral), the “Cmax compared with a dose-equivalent EFdA” value is “higher”. The “Prodrug formula 4-A Concentrations in Dog Plasma” value was 1.13 ng/mL and 1.63 ng/mL and 1.09 ng/mL in data set [1] (Prodrug formula 4-A PO 8.25 mg/kg, 0.250 hrs, individual animals 2001-2003, 8.25 mg/kg); “BQL (2×) and 1.68 ng/mL” in data set [1] (Prodrug formula 4-A PO 8.25 mg/kg, 0.500 hrs, individual animals 2001-2003, 8.25 mg/kg); “BQL (2×) and 1.43 ng/mL” in data set [1] (Prodrug formula 4-A PO 8.25 mg/kg, 1.00 hrs, individual animals 2001-2003, 8.25 mg/kg); “BQL” in data set [1] (Prodrug formula 4-A PO 8.25 mg/kg, 2.00 hrs, individual animals 2001-2003); “BQL” in data set [1] (Prodrug formula 4-A PO 8.25 mg/kg, 4.00 hrs, individual animals 2001-2003); “BQL” in data set [1] (Prodrug formula 4-A PO 8.25 mg/kg, 6.00 hrs, individual animals 2001-2003). Also, the “Prodrug formula 4-A Concentrations in Dog Plasma” value in data set [1] (Prodrug formula 4-A PO 8.25 mg/kg, 8.00 hrs, individual animals 2001-2003) was “BQL”; in data set [1] (setting [4]) it was “BQL”; in data set [1] (setting [5]) it was “BQL”. Also, the “Prodrug formula 4-A Concentrations in Dog Plasma, Mean” value in data set [1] (Prodrug formula 4-A PO 8.25 mg/kg, 0.250 hrs, mean of 3 dogs) was 1.28 ng/mL; in data set [1] (Prodrug formula 4-A PO 8.25 mg/kg, 0.500 hrs, Mean column (one animal above BQL)) it was 1.68 ng/mL; in data set [1] (Prodrug formula 4-A PO 8.25 mg/kg, 1.00 hrs, Mean column (one animal above BQL)), 1.43 ng/mL. The “EFdA Concentrations in Dog Plasma” value in data set [1] (setting [4]) and in data set [1] (setting [5]) was “BQL” throughout. Moreover, in data set [1] (dogs, oral), the “Prodrug detected in the systemic circulation” value is “minimal”.

For the molecule `C#C[C@]1(COC(=O)NC)O[C@@H](n2cnc3c(N)nc(F)nc32)C[C@@H]1O` [Formula 5-A, ((2R,3S,5R)-5-(6-amino-2-fluoro-9H-purin-9-yl)-2-ethynyl-3-hydroxytetrahydrofuran-2-yl)methyl methylcarbamate], in data set [2], the “Stability in Human Liver S9 Formation of EFdA” value is reported as “No”. Besides, the “Stability in Human Plasma Formation of EFdA” value in data set [3] is “No”.

Take `C#C[C@]1(COC(=O)OCc2oc(=O)oc2C)O[C@@H](n2cnc3c(N)nc(F)nc32)C[C@@H]1OC(=O)OCc1oc(=O)oc1C` [Formula 4-C, [(2R,3S,5R)-5-(6-amino-2-fluoro-purin-9-yl)-2-ethynyl-2-[(5-methyl-2-oxo-1,3-dioxol-4-yl)methoxycarbonyloxymethyl]tetrahydrofuran-3-yl] (5-methyl-2-oxo-1,3-dioxol-4-yl)methyl carbonate]: in data set [2], the “Stability in Human Liver S9 Formation of EFdA” value was “Yes”, the “Stability in Human Liver S9 Half-life” value is listed as “C (C: <50 minutes)” and the “Conversion to the target drug” value was “can be converted to the target drug efficiently”. For the same molecule, in data set [3], the “Conversion to the target drug” value is “can be converted to the target drug efficiently” and the “Stability in Human Plasma Formation of EFdA” value is “Yes”.

With `C#C[C@]1(CO)O[C@@H](n2cnc3c(NCc4oc(=O)oc4C)nc(F)nc32)C[C@@H]1O` [Formula 6-A, 4-(((9-((2R,4S,5R)-5-ethynyl-4-hydroxy-5-(hydroxymethyl)tetrahydrofuran-2-yl)-2-fluoro-9H-purin-6-yl)amino)methyl)-5-methyl-1,3-dioxol-2-one], in data set [2], the “Stability in Human Liver S9 Formation of EFdA” value is “Yes” and the “Conversion to the target drug” value is given as “can be converted to the target drug efficiently”. Moreover, in data set [3], the “Stability in Human Plasma Formation of EFdA” value was “No”.

As for `C#C[C@]1(COC(=O)NCCN(C)Cc2oc(=O)oc2C)O[C@@H](n2cnc3c(N)nc(F)nc32)C[C@@H]1O` [Formula 7-A, ((2R,3S,5R)-5-(6-amino-2-fluoro-9H-purin-9-yl)-2-ethynyl-3-hydroxytetrahydrofuran-2-yl)methyl (2-(methyl((5-methyl-2-oxo-1,3-dioxol-4-yl)methyl)amino)ethyl)carbamate], in data set [2], the “Stability in Human Liver S9 Formation of EFdA” value is listed as “No”. Also, in data set [3], the “Stability in Human Plasma Formation of EFdA” value is “No”.

Take `C#C[C@]1(COC(=O)NC(C)C)O[C@@H](n2cnc3c(N)nc(F)nc32)C[C@@H]1O` [Formula 2-A, ((2R,3S,5R)-5-(6-amino-2-fluoro-9H-purin-9-yl)-2-ethynyl-3-hydroxytetrahydrofuran-2-yl)methyl isopropylcarbamate]: the “Stability in Human Liver S9 Formation of EFdA” value in data set [2] is reported as “No”. Also, the “Stability in Human Plasma Formation of EFdA” value in data set [3] is “No”.

On to `C#C[C@]1(CO)O[C@@H](n2cnc3c(NC(=O)OC(C)C)nc(F)nc32)C[C@@H]1O` [Formula 3-A, isopropyl (9-((2R,4S,5R)-5-ethynyl-4-hydroxy-5-(hydroxymethyl)tetrahydrofuran-2-yl)-2-fluoro-9H-purin-6-yl)carbamate], for which, in data set [2], the “Stability in Human Liver S9 Formation of EFdA” value was “No” and the “Stability in Human Liver S9 Half-life” value was “B (B: 50-200 minutes)”. Also, the “Stability in Human Plasma Formation of EFdA” value in data set [3] was “No”.
